pIC50: −log10 of the molar value.
The compounds below were run against T1, endothelin-converting enzyme (ECE) (Homo sapiens, UniProt P42892) (assay: Determination of the inhibitory effect of the endothelin-converting enzyme (ECE): cleavage of (2,3-^3 H)propionyl-b-ET-1(19-35)). Conditions: purified ECE, pre-incubated 30 minutes at 37° C., Tris maleate buffer pH=6.5, incubation one hour at 37° C.
T1 sequence (P42892 1-770): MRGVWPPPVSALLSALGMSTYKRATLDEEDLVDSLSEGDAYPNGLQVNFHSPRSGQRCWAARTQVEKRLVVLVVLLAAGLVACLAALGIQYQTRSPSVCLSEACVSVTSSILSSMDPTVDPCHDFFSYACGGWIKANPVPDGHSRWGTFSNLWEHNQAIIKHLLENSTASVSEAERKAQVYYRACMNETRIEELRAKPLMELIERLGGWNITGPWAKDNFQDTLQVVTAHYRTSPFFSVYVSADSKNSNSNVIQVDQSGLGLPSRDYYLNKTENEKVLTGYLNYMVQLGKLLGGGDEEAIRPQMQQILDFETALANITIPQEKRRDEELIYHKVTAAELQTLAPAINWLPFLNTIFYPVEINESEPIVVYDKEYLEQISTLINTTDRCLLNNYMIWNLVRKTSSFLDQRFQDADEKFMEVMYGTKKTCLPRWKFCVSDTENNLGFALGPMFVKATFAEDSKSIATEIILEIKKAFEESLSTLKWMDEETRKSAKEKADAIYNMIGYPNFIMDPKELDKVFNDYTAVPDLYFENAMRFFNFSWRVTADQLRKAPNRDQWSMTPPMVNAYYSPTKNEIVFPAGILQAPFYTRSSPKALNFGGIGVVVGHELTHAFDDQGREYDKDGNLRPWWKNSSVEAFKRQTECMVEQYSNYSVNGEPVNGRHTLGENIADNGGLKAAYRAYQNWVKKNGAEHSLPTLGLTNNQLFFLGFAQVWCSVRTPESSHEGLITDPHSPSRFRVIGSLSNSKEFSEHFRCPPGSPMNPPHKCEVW
Type: biochemical
From the text: Determination of the inhibitory effect of the endothelin-converting enzyme (ECE) A test is used, in which the product (2,3-^3 H)propionyl-b-ET-1(19-35) prepared as indicated below in a) is cleaved by ECE into the product (2,3-^3 H)propionyl-b-ET-1(19-21) in the presence of product P of which the inhibitory activity of ECE one wishes to determine as indicated below in b): the inhibitory activity of ECE of the product P will therefore be accordingly as high as the quantity of product of formula (II) formed, determined by counting the radioactivity, will be low. The operation is carried out as follows: b) Determination of the inhibitory activity of the endothelin-converting enzyme (ECE) […] The reaction is initiated by the addition of 10 μl of (2,3-^3 H)propionyl-b-ET-1(-19-35) prepared as indicated above in a), at a final concentration of 1.8.10^-12 M After incubation for one hour at 37° C., the reaction is stopped by the addition of 600 μl of ethyl acetate and the (2,3-^3 H)propionyl-b-ET-1(19-21) is extracted by mechanical agitation for 2 minutes. 300 μl of the organic phase is removed, 5 ml of liquid scintillator is added and the radioactivity is counted for 1 minute with a liquid scintillation counter. Each measurement is carried out in triplicate except for the ECE control (control enzyme, without the product the ECE inhibitory activity of which one wishes to test), for which the measurement is carried out six times. The percentage inhibition is calculated by establishing the relationship: [formula] The blank is carried out starting with the solution obtained without enzyme. The test was validated by its application to known inhibitors i.e. P1 which is phosphoramidon and P2 which is N-(phenylethylphosphonyl)-Leu-Trp (TAKEDA). From the cpm's obtained and by plotting the graph of the percentage of inhibition relative to the concentration of inhibitor (nM), the IC50 is calculated which therefore corresponds to the concentration which causes a 50% inhibition of ECE.

Row | pIC50 | SMILES
1 | 7.15 | O=C(N[C@@H](Cc1ccc(-c2ccccc2)cc1)c1nnn[nH]1)[C@@H](CS)Cc1ccccc1 [Example 9, (S,S)N-(2-((1,1'-biphenyl)-4-yl)-1-(1H-tetrazol-5-yl)ethyl)-alpha-(mercaptomethyl)-benzenepropanamide]
2 | 6.92 | O=C(N[C@@H](Cc1ccc(-c2cccs2)cc1)C(=O)O)C(CS)Cc1cccc(Br)c1 (single isomer, unassigned) [Example 7A]
3 | 6.82 | O=C(N[C@@H](Cc1c[nH]c2c(OCc3ccccc3)cccc12)C(=O)O)C(CS)Cc1cccc(Br)c1 (stereo partly drawn) [Example 8, N-[3-(3-bromophenyl)-2-(mercaptomethyl)-1-oxopropyl]-7-(phenylmethoxy)-Tryptophan]
